Kd data for ten compounds are collected here from ChEMBL document CHEMBL3991601, “The target landscape of clinical kinase drugs” (Science, 2017).

Activity calls are given as the source filed them. Bounds are passed on as bounds.

Assay [1] deals with T1, Serine/threonine-protein kinase A-Raf (Homo sapiens, UniProt P10398).
T1 sequence (P10398 whole entry): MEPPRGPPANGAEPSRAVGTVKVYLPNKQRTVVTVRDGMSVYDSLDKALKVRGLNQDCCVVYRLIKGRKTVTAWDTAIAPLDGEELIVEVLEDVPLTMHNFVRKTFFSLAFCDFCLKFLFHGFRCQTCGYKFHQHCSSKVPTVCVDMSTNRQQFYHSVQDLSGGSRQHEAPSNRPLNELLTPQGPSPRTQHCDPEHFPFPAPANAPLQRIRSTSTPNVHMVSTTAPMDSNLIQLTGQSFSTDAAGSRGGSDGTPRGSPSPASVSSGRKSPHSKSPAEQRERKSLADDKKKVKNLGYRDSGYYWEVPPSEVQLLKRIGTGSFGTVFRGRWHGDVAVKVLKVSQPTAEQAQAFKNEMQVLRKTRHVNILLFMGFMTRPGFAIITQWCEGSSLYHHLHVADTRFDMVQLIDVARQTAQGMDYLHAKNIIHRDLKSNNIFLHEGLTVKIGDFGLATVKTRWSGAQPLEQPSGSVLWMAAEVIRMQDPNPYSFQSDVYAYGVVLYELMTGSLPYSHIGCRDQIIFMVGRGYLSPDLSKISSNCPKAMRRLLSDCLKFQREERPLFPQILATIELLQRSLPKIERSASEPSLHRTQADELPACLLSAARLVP

Assay [2] deals with Serine/threonine-protein kinase pim-1 (Homo sapiens, UniProt P11309).
Sequence of Serine/threonine-protein kinase pim-1 (P11309 whole entry, the tested form may be a part): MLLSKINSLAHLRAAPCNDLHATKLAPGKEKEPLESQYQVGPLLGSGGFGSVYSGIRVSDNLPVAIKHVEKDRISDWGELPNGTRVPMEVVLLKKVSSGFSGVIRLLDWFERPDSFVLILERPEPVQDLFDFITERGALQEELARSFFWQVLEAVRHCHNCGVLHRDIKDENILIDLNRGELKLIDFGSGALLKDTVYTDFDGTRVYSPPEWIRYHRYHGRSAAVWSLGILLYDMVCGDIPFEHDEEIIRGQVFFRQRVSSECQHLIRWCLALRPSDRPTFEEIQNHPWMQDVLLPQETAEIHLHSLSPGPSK
The target in assay [3] is LIM domain kinase 1 (Homo sapiens, UniProt P53667).
Sequence of LIM domain kinase 1 (P53667 whole entry, the tested form may be a part): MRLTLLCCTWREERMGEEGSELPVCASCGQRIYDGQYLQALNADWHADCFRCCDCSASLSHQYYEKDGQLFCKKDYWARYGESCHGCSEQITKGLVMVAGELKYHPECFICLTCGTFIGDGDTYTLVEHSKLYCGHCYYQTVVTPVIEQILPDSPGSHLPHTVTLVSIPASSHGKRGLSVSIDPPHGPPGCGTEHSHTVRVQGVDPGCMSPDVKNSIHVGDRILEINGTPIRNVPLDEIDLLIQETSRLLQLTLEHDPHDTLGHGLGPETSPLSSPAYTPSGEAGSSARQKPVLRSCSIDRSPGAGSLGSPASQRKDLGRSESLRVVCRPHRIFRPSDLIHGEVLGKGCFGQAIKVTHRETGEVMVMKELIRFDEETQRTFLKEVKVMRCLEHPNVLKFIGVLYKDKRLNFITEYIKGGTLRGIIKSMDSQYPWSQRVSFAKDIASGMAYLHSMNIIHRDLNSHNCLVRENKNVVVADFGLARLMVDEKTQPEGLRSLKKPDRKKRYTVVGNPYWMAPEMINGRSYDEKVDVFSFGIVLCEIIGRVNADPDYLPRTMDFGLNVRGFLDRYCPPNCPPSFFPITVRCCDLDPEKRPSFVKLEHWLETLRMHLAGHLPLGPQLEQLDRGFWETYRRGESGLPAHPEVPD
The target of assay [4] is T2, Very long-chain specific acyl-CoA dehydrogenase, mitochondrial (Homo sapiens, UniProt P49748).
T2 sequence (P49748 whole entry): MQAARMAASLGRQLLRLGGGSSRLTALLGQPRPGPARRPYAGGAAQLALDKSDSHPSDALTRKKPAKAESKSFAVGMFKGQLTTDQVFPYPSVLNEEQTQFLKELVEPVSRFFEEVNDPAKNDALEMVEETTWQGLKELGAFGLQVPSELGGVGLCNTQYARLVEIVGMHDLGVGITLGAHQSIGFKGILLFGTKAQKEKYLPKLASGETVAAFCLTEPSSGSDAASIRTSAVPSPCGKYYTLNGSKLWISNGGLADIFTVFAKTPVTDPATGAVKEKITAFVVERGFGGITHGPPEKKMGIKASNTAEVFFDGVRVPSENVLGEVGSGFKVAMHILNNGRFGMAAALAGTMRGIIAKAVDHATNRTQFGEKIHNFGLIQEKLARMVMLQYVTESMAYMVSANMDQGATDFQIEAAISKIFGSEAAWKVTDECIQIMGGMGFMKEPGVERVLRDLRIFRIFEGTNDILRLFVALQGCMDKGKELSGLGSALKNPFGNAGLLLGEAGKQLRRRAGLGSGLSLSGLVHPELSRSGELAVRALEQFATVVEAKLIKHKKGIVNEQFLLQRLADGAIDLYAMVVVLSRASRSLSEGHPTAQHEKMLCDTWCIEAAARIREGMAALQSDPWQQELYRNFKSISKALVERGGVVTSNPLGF

The target in assay [5] is Structural maintenance of chromosomes protein 2 (Homo sapiens, UniProt O95347).
Sequence of Structural maintenance of chromosomes protein 2 (O95347 whole entry): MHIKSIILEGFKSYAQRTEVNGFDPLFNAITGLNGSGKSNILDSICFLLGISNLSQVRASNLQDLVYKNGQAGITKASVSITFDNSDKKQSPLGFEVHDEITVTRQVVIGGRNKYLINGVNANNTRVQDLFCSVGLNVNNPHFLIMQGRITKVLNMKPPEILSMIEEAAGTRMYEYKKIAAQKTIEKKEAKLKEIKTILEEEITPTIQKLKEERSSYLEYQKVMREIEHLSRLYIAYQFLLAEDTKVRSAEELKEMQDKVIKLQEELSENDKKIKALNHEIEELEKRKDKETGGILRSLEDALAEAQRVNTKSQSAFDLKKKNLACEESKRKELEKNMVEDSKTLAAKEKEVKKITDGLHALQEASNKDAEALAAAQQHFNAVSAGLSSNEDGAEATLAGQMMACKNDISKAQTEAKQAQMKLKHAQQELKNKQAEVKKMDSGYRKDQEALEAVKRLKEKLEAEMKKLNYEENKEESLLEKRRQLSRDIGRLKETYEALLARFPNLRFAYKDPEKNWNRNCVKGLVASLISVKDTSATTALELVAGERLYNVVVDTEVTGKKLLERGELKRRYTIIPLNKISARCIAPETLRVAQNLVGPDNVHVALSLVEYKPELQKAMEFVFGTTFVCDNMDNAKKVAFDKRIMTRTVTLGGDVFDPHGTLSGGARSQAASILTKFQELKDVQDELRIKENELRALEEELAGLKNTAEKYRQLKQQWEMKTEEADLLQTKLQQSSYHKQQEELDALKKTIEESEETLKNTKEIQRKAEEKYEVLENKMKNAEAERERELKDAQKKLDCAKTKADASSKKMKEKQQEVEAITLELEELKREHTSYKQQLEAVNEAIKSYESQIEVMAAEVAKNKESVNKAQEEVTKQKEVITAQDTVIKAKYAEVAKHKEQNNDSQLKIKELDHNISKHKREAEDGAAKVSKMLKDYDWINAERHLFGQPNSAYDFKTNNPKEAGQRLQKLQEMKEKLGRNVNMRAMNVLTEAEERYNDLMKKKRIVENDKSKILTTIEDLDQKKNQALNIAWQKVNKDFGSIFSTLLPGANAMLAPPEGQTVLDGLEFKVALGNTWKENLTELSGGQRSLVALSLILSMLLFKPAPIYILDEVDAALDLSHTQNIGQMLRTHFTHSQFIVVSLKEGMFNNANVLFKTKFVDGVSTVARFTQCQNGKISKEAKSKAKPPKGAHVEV
The target of assay [6] is T3, Interleukin-1 receptor-associated kinase 3 (Homo sapiens, UniProt Q9Y616).
T3 sequence (Q9Y616 whole entry): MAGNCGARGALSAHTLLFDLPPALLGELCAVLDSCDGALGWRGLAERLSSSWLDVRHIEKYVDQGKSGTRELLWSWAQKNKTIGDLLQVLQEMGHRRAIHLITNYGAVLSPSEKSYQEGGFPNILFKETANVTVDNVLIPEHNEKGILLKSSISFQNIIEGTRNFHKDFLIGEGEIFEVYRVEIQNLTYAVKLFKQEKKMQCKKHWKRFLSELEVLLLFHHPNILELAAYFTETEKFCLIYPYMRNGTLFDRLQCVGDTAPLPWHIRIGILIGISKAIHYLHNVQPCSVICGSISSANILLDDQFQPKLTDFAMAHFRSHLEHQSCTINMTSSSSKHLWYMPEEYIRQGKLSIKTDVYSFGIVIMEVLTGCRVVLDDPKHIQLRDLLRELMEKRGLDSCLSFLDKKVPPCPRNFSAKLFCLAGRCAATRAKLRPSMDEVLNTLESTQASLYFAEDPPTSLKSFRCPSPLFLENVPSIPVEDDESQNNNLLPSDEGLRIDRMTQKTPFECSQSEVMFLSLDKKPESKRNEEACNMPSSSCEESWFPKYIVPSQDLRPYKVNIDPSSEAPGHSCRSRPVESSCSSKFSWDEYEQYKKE

Assay [7] addresses T4, Succinate--CoA ligase [ADP-forming] subunit beta, mitochondrial (Homo sapiens, UniProt Q9P2R7).
T4 sequence (Q9P2R7 whole entry): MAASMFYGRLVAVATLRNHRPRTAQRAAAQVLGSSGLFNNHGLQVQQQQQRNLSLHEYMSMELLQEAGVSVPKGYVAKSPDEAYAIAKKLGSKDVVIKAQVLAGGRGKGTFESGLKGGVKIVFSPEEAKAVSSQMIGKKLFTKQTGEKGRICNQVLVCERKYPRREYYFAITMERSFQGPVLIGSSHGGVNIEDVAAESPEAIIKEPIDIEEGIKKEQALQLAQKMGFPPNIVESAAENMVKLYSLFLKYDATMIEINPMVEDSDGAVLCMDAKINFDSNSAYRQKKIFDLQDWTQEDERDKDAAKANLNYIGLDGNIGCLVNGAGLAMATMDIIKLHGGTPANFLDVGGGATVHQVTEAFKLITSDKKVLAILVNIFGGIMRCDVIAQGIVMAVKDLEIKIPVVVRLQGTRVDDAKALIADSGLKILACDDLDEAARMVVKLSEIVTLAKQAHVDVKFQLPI

Assay [8] concerns the target Mitogen-activated protein kinase 11 (Homo sapiens, UniProt Q15759).
Assay [9] addresses Putative heat shock protein HSP 90-beta 2 (Homo sapiens, UniProt Q58FF8).
Assay [10] concerns the target T5, Pyridoxal kinase (Homo sapiens, UniProt O00764).
T5 sequence (O00764 whole entry): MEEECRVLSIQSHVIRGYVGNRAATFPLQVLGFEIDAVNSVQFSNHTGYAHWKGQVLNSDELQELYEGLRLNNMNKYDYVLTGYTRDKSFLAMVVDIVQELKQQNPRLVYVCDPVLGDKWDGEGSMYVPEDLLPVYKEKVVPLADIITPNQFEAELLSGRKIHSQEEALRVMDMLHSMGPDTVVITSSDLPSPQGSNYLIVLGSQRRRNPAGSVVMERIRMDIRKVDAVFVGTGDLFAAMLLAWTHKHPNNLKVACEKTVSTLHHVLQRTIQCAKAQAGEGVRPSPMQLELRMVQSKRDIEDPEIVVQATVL
Also: in the data inactive means no Kd found up to 30 µM.

Sequence of Mitogen-activated protein kinase 11 (Q15759 whole entry): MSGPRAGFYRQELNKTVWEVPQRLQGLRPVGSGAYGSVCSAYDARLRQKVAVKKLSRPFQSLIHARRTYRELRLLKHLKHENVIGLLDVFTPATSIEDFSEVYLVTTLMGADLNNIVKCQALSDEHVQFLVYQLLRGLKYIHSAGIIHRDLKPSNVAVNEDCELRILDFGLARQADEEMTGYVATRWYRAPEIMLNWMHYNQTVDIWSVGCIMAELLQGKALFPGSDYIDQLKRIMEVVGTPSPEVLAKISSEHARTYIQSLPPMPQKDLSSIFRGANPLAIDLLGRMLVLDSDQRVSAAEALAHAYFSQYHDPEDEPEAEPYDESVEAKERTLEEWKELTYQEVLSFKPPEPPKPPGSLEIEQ
Sequence of Putative heat shock protein HSP 90-beta 2 (Q58FF8 whole entry): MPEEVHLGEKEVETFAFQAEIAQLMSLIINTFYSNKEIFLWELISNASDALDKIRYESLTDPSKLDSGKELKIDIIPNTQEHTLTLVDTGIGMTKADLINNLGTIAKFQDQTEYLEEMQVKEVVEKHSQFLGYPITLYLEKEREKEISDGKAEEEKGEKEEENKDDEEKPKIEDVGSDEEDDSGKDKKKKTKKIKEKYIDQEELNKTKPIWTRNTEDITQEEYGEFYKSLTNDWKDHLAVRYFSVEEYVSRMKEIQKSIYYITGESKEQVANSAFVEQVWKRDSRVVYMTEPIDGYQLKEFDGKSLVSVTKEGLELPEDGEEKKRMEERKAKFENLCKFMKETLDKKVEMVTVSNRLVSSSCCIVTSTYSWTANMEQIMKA

A word on the Kd: it is the concentration at which binding is half-saturated. On to `CNS(=O)(=O)Nc1nccc(Cc2c(C)c3ccc(Oc4ncccn4)cc3oc2=O)c1F` [AVUTOMETINIB], for which the Kd in assay [1], in assay [2], in assay [3], in [4], in [5] and in assay [6] was > 30 µM (inactive) each time. Moreover, the Kd in assay [7], in assay [8], in assay [9] and in [10] was > 30 µM (inactive) throughout.

Take `COc1ccc(-c2ccc3c(N4CCOC[C@@H]4C)nc(N4CCOC[C@@H]4C)nc3n2)cc1CO` [AZD-8055]: the Kd in assay [1], in [2], in assay [3], in assay [4], in assay [5] and in assay [6] was > 30 µM (inactive) in each case. Further, the Kd in assay [7], in assay [8], in assay [9] and in [10] was > 30 µM (inactive) each time.

As for `O=C(O)[C@]1(Cc2cccc(Nc3nccs3)n2)CC[C@@H](Oc2cccc(Cl)c2F)CC1` [MK-5108], the Kd is > 30 µM (inactive) in assay [1]; > 30 µM (inactive) in assay [2]; 5.09 µM (active) in assay [3]; > 30 µM (inactive) in assay [4]; > 30 µM (inactive) in assay [5]; 0.024 µM (active) in assay [6]. In addition, the Kd in assay [7], in assay [8], in [9] and in assay [10] was > 30 µM (inactive) each time.

Turning to `O=C1NC(=O)/C(=C/c2ccc3nccc(-c4ccncc4)c3c2)S1` [GSK-1059615], the Kd in assay [1] is > 30 µM (inactive); in assay [2], 0.205 µM (active); in assay [3], > 30 µM (inactive); in assay [4] it was > 30 µM (inactive); in assay [5], > 30 µM (inactive); in [6], 8.67 µM (active). The Kd in [7], in assay [8], in [9] and in assay [10] was > 30 µM (inactive) throughout.

Take `C[C@@H](Nc1cc(F)cc(F)c1)c1cc(C(=O)N(C)C)cc2c(=O)cc(N3CCOCC3)oc12` [AZD-8186]: the Kd in [1], in assay [2], in [3], in [4], in [5] and in assay [6] was > 30 µM (inactive) each time. In addition, the Kd in assay [7], in assay [8], in assay [9] and in assay [10] was > 30 µM (inactive) throughout.

`Cc1cc2c(F)c(Oc3ncnn4cc(OC[C@@H](C)OC(=O)[C@H](C)N)c(C)c34)ccc2[nH]1` [BRIVANIB ALANINATE]: the Kd in assay [1], in assay [2], in assay [3], in assay [4], in assay [5] and in assay [6] was > 30 µM (inactive) throughout. The Kd in assay [7], in [8], in assay [9] and in assay [10] was > 30 µM (inactive) each time.

In the case of `C1=C/COCc2cc(ccc2OCCN2CCCC2)Nc2nccc(n2)-c2cccc(c2)COC/1` [PACRITINIB], the Kd is > 30 µM (inactive) in assay [1]; > 30 µM (inactive) in [2]; > 30 µM (inactive) in [3]; > 30 µM (inactive) in [4]; > 30 µM (inactive) in assay [5]; 0.035 µM (active) in assay [6]. Further, the Kd in assay [7], in [8], in [9] and in assay [10] was > 30 µM (inactive) throughout.

With `CN1CCC(COc2cnc(-c3cccc(Cn4nc(-c5cccc(C#N)c5)ccc4=O)c3)nc2)CC1` [TEPOTINIB], the Kd in [1], in [2], in assay [3], in assay [4], in assay [5] and in assay [6] was > 30 µM (inactive) in each case. In addition, the Kd in [7], in assay [8], in assay [9] and in assay [10] was > 30 µM (inactive) in each case.

As to `COc1cc2nccc(Oc3ccc(NC(=O)NC4CC4)c(Cl)c3)c2cc1C(N)=O` [LENVATINIB], the Kd in assay [1], in assay [2], in assay [3], in assay [4], in assay [5] and in assay [6] was > 30 µM (inactive) in each case. The Kd in assay [7], in [8], in assay [9] and in assay [10] was > 30 µM (inactive) throughout.

Regarding `C[C@@H](c1ccc2nccn2c1)n1nnc2ncc(-c3cnn(C)c3)nc21` [SAVOLITINIB], the Kd in [1], in [2], in assay [3], in assay [4], in assay [5] and in assay [6] was > 30 µM (inactive) in each case. Moreover, the Kd in assay [7], in assay [8], in assay [9] and in [10] was > 30 µM (inactive) in each case.
